For the test, the target named is TrkA (Homo sapiens (Human), UniProt P04629). Nature of the test: TrkA Omnia Assay. The conditions noted are these: averaged IC50; 20 nM enzyme, 500 μM ATP, 10 μM peptide substrate. The format is biochemical. In a few lines: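 Recombinant TrkA (20 nM) preincubated 10 min at ambient temperature with compound, then Omnia Tyr Peptide #4 (10 μM) and ATP (500 μM) added in 25 mM MOPS pH 7.5, 5 mM MgCl2, 0.005% Triton X-100. Fluorescence (ex 360/em 485 nm) followed continuously for 70 min; IC50 from initial rates by 4- or 5-parameter logistic fit.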
TrkA, sequence (P04629 33-796): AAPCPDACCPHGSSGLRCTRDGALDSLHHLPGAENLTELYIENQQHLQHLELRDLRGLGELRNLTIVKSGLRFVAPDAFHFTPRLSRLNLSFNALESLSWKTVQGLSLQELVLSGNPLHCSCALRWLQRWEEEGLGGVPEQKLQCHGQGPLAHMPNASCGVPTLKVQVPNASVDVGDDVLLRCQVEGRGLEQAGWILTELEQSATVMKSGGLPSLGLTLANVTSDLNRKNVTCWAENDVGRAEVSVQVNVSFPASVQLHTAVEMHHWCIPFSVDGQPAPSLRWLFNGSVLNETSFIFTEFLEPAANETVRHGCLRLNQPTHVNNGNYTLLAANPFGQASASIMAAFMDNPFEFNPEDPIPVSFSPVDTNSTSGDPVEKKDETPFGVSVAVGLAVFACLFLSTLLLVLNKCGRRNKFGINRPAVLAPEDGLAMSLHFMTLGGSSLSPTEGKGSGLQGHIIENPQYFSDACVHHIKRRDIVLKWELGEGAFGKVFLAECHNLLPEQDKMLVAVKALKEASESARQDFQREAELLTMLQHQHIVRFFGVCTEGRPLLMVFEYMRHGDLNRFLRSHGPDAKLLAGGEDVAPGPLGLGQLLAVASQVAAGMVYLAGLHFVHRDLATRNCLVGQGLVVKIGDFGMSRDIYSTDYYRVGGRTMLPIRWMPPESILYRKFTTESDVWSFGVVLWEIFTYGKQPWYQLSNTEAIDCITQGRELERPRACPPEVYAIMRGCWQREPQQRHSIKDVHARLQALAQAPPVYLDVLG

Some results are limits rather than exact numbers.

With `COCCN1C[C@@H](NC(=O)Nc2c(C3CC3)c(-c3cnn(C)c3)nn2-c2ccccc2)[C@H](c2ccc(F)c(F)c2)C1` [Example 309, 1-(4-cyclopropyl-1′-methyl-1-phenyl-1H,1′H-[3,4′-bipyrazol]-5-yl)-3-((3S,4R)-4-(3,4-difluorophenyl)-1-(2-methoxyethyl)pyrrolidin-3-yl)urea], the concentration for half-maximal inhibition (IC50) is below 0.1 µM.
In the case of `COCCN1C[C@@H](NC(=O)Nc2c(Cl)c(OC[C@@H](C)O)nn2-c2ccccc2)[C@H](c2ccc(F)c(F)c2)C1` [Example 372, 1-(4-chloro-3-((R)-2-hydroxypropoxy)-1-phenyl-1H-pyrazol-5-yl)-3-((3S,4R)-4-(3,4-difluorophenyl)-1-(2-methoxyethyl)pyrrolidin-3-yl)urea], the IC50 was below 0.1 µM.
